Measured values taken from ChEMBL document CHEMBL5505981, “Design, synthesis and biological evaluation of novel 1,2,4a,5-tetrahydro-4H-benzo[b][1,4]oxazino[4,3-d][1,4]oxazine-based AAK1 inhibitors with anti-viral property against SARS-CoV-2” (Eur J Med Chem, 2024).
Calls of active or inactive are those of the source. The rule behind the calls is not given here.

Legend:
HEK293 [1] = assay type: cell-based; conditions: Homo sapiens, dose 1-3 µM, time 4.0 hrs
SARS-CoV-2 [2] = assay type: functional, organism-based; conditions: Severe acute respiratory syndrome coronavirus 2; HEK293; dose 3.0 µM, time 25.0 hrs
SARS-CoV-2 [3] = assay type: functional, organism-based; conditions: Severe acute respiratory syndrome coronavirus 2; HEK293; dose 3.0 µM, time 4.0 hrs
SARS-CoV-2 [4] = assay: microbe, parasite or virus in culture; conditions: Severe acute respiratory syndrome coronavirus 2, HEK293
SARS-CoV-2 [5] = assay type: functional, organism-based; conditions: Severe acute respiratory syndrome coronavirus 2; HEK293; dose 10.0 µM, time 6.0 hrs
SARS-CoV-2 [6] = assay type: functional, organism-based; conditions: Severe acute respiratory syndrome coronavirus 2; HEK293; dose 10.0 µM, time 6.0 hrs; remark: listed apart in the source
HEK293 [7] = assay type: cell-based; conditions: Homo sapiens, dose 5-10 µM, time 4.0 hrs
SARS-CoV-2 [8] = assay type: functional, organism-based; conditions: Severe acute respiratory syndrome coronavirus 2; HEK293; dose 5.0 µM, time 6.0 hrs
SARS-CoV-2 [9] = assay type: functional, organism-based; conditions: Severe acute respiratory syndrome coronavirus 2; HEK293; dose 5.0 µM, time 6.0 hrs; remark: listed apart in the source

Row | SMILES | inhibition (HEK293 [1]) | inhibition (SARS-CoV-2 [2]) | Activity (SARS-CoV-2 [3]) | IC50 (SARS-CoV-2 [4]) | Activity (SARS-CoV-2 [5]) | Activity (SARS-CoV-2 [6]) | inhibition (HEK293 [7]) | Activity (SARS-CoV-2 [8]) | Activity (SARS-CoV-2 [9])
1 | C(#Cc1c[nH]c2ncc(-c3ccc4c(c3)OCC3COCCN43)cc12)c1cccnc1 (configuration not stated) | Active | Active | Active | ~2.9 µM |  |  |  |  | 
2 | COc1ccc(-c2cnc3[nH]cc(C#Cc4cccnc4)c3c2)cc1OC | Active | Active | Active | ~3.11 µM |  |  |  |  | 
3 | CCN(CC)S(=O)(=O)Nc1cccc(-c2ccc3c(NC(=O)C4CC4)n[nH]c3c2)c1 |  |  | Active |  | Active | Active | Active |  | 
4 | CC(C)C[C@](C)(N)COc1ccc(-c2ccnc(C(F)F)c2)nc1C(F)F [PILAVAPADIN] |  |  | Active | ~4.18 µM |  |  |  | Active | Active
5 | CCN(CC)CCNC(=O)c1c(C)[nH]c(/C=C2\C(=O)Nc3ccc(F)cc32)c1C [SUNITINIB] |  |  |  | ~1.96 µM |  |  |  |  | 
